Converted amounts (≈) assume the structure as drawn. Bounds are passed on as bounds.

For one test, the system named is MW2 (USA400) wild-type. The experiment in a line: MIC by microdilution (CLSI). The class given is cell-based, Staphylococcus aureus. From the text: (§1) The present invention was described based on a series of experiments examining the biological basis for CA-MRSA strains versus HA-MRSA strains, focusing on the role of PBPs in CA-MRSA and generally in β-lactam resistance. Experiments were first performed using mutants of various PBPs. In-frame deletion mutants of the genes encoding PBP3 (MW1504) and PBP4 (MW0604), pbp3 and pbp4 respectively, were generated in the CA-MRSA strain MW2 and in HA-MRSA strain COL using the temperature-sensitive allelic replacement vector pMAD (Arnaud, M. et al. 2004. Appl. Environ. Microbiol. 70:6887-6891). PBP4 was also deleted in the HA-MRSA strains Mu50 and N315 and in the CA-MRSA strain USA300. […] Minimum inhibitory concentrations (MICs) were determined according to the Clinical and Laboratory Standards Institute and are a standard method for defining antibiotic efficacy against different organisms. Bacteria, grown to an OD650=1, were added to cation-supplemented Mueller Hinton broth (CSMHB) to achieve a final concentration of 5×10^5 CFU/ml.
(§2) Although PBP4, similar to PBP2A, binds with low affinity to many β-lactams, PBP4 binds cefoxitin, a semi-synthetic β-lactam derived from cephamycin C, with high affinity (Nair, S. R. and C. E. Cherubin. 1978. Antimicrob. Agents Chemother. 14:866-875).
(§3) Minimum inhibitory concentrations and minimum bactericidal concentrations (MIC and MBC, respectively) were determined for each isolate in triplicate by microdilution techniques with an inoculum of 5×10^5 CFU/ml according to the Clinical and Laboratory Standards Institute guidelines. Aliquots (5 μl) from clear wells were plated onto TSA drug-free plates for the determination of MBCs, followed by incubation at 37° C. for 24 and 48 hours. For the mutant strains, each one of the three clones was tested. MIC data were reported as median values from at least three independent experiments for each antibiotic. Also, strains containing pEPSA5-based plasmids were tested with and without xylose induction, but chloramphenicol was not added to avoid interference with beta-lactam resistance evaluation. […] The correct inocula were confirmed by plating serial dilutions on agar.
For orientation: Dilution methods test growth across graded concentrations, often in twofold steps.

Another test relates to USA300 wild-type. The test can be described thus: MIC by microdilution (CLSI). The class given is cell-based, Staphylococcus aureus.
From the text: as §1, §2, §3

The next test has as its system PBP4. Conditions: cited from earlier work.
The next test has as its system MW2 ex Δpbp3. The experiment in a line: MIC by microdilution (CLSI). The class given is cell-based. The conditions noted are these: Staphylococcus aureus, read-out: MICs.
From the text: as §1, with “Experiments” for “The present invention was described based on a series of experiments examining the biological basis for CA-MRSA strains versus HA-MRSA strains, focusing on the role of PBPs in CA-MRSA and generally in β-lactam resistance. Experiments”
as §3

The subject of test [1] is MW2 ex (MW2 cured of plasmid pMW2). The experiment in a line: MIC by microdilution (CLSI). The conditions noted are these: Staphylococcus aureus, Table 1. Format: cell-based.
From the text: as §1, with “Experiments” for “The present invention was described based on a series of experiments examining the biological basis for CA-MRSA strains versus HA-MRSA strains, focusing on the role of PBPs in CA-MRSA and generally in β-lactam resistance. Experiments”
as §3

The subject of test [2] is MRSA252 HA-MRSA. The experiment in a line: MIC and synergy assay. Format: cell-based, Staphylococcus aureus. The conditions noted are these: for combination: MIC of oxacillin with ¼ MIC cefoxitin. The procedure:
as §3

Another test relates to MW2 Δpbp3. The experiment in a line: MIC by microdilution (CLSI). Format: cell-based, Staphylococcus aureus. Conditions: Table 1; MW2 Δpbp3.
From the text: as §1, §3

The next test deals with MW2 Δpbp4::pbp4. The test can be described thus: MIC by microdilution (CLSI). Format: cell-based, Staphylococcus aureus. Conditions: Table 1; MW2 Δpbp4::pbp4 (complemented).
From the text: as §1, §3

The next test concerns MW2 Δpbp4. The experiment in a line: MIC by microdilution (CLSI). Format: cell-based, Staphylococcus aureus.
From the text: as §1, §3

The next test deals with MW2 Δpbp3/4. The experiment in a line: MIC by microdilution (CLSI). The class given is cell-based, Staphylococcus aureus. The conditions noted are these: Table 1, MW2 Δpbp3/4.
From the text: as §1, §3

For another test, the system named is USA300 Δpbp4. The experiment in a line: MIC by microdilution (CLSI). The class given is cell-based, Staphylococcus aureus.
From the text: as §1, §3

Another test concerns USA300 Δpbp4::pbp4. The experiment in a line: MIC by microdilution (CLSI). The class given is cell-based, Staphylococcus aureus. Conditions: Table 1; USA300 Δpbp4::pbp4 (complemented).
From the text: as §1, §3

Another test concerns COL HA-MRSA. The test can be described thus: Minimum bactericidal concentration (MBC). The class given is cell-based, Staphylococcus aureus. The conditions noted are these: for combination: MBC of oxacillin with ¼ MIC cefoxitin. The method, then: as §3
Another test has as its system Mu50 HA-MRSA/VISA. The experiment in a line: Minimum bactericidal concentration (MBC). The conditions noted are these: for combination: MBC of oxacillin with ¼ MIC cefoxitin. The class given is cell-based, Staphylococcus aureus. The procedure: as §3
In test [3] the test system is MRSA252 HA-MRSA. The test can be described thus: Minimum bactericidal concentration (MBC). Conditions: for combination: MBC of oxacillin with ¼ MIC cefoxitin. The class given is cell-based, Staphylococcus aureus. The method, then: as §3

In the case of `CO[C@@]1(NC(=O)Cc2cccs2)C(=O)N2C(C(=O)O)=C(COC(N)=O)CS[C@@H]21` [CX, cefoxitin], the MIC with MW2 (USA400) wild-type (Staphylococcus aureus, USA400, read-out: MICs) was found to be 64 µg/mL (≈ 150 µM); in the test on USA300 wild-type (Staphylococcus aureus, USA300, read-out: MICs), 64 µg/mL (≈ 150 µM); in the test with MW2 ex Δpbp3 it was 32 µg/mL (≈ 74.9 µM); in test [1], 16 µg/mL (≈ 37.4 µM). Further, in the test with PBP4, the “affinity for PBP4” value was “high affinity”.

`Cc1onc(-c2ccccc2)c1C(=O)N[C@@H]1C(=O)N2[C@@H]1SC(C)(C)[C@@H]2C(=O)O` [OX, oxacillin]: the “MICs 48 hr” value with MRSA252 HA-MRSA [2] came to 256 µg/mL; in the test on MW2 (USA400) wild-type (MW2, 48 hr, for combinations: MIC of oxacillin with ¼ MIC of second drug), 64 µg/mL; with USA300 wild-type (USA300, 48 hr, for combinations: MIC of oxacillin with ¼ MIC of second drug) it was 64 µg/mL. The MICs with MW2 (USA400) wild-type (Table 1, MW2 (USA400) wild-type) is 64 µg/mL; against USA300 wild-type (Table 1, USA300 wild-type), 64 µg/mL; against MW2 Δpbp3, 64 µg/mL; with MW2 Δpbp4::pbp4 it was 64 µg/mL; in the test on MW2 Δpbp4 (Table 1, MW2 Δpbp4) it was 4 µg/mL; with MW2 Δpbp4 (pbp4 mutant of MW2 with pbp2 expressed from inducible plasmid pEPSA5) it was 4 µg/mL. Besides, the MICs against MW2 Δpbp3/4 turned out to be 4 µg/mL; in the test on MW2 Δpbp3/4 (listed as oxacillin), 1 µg/mL; with USA300 Δpbp4 (Table 1, USA300 Δpbp4), 4 µg/mL; against USA300 Δpbp4 (pbp4 mutant of USA300 with pbp2 expressed from inducible plasmid pEPSA5), 4 µg/mL; with USA300 Δpbp4::pbp4, 64 µg/mL. Also, the “reduction in MIC on loss of pbp4” value in the test on MW2 Δpbp4 (MW2 Δpbp4 versus MW2) and in the test on USA300 Δpbp4 (USA300 Δpbp4 versus USA300) was 16 fold each time. The “MBC 48 hr” value in the test with COL HA-MRSA, in the test with Mu50 HA-MRSA/VISA and in the test on MRSA252 HA-MRSA [3] was above 256 µg/mL throughout.

The record behind these values is patent publication US9427468B2, “Compositions and methods for diagnosing and treating community-acquired methicillin-resistant Staphylococcus aureus” (priority 2007, dated 2016).
